Measurements: patent US12583815B2, “Inhibitors of YAP/TAZ-TEAD oncoproteins, synthesis and use thereof” (BRIDGENE BIOSCIENCES, INC., priority 2020, dated 2026)

biological target: T1, TEAD1 (Homo sapiens, UniProt P28347); experiment: TEAD1-Luciferase reporter assay (MCF-7 cell-based TEAD1-Luc assay); conditions: cells treated with compound overnight, luciferase chemiluminescence readout
T1 construct: endogenous in cells; host or cells: MCF-7
Experimental: TEAD1-Luciferase Reporter Assay to Characterize the Pharmacological Properties of the Tead1 Covalent Inhibitors
FIG. 1 is a schematic illustration of the mechanism of TEAD1 inhibition by the disclosed compounds, which is the theoretical basis for the development of a TEAD-YAP/TAZ cell-based functional assay to characterize the pharmacological properties of the synthesized inhibitor compounds. The MCF-7 cell-based TEAD1-Luc assay for the IC50 measurement was performed as below. Compounds 2, 4, 5, and 7, representing different chemical scaffolds, were characterized. About 200 μL of culture medium was placed in each of the 10^4 cell/well in a 96-well plate. The next day the cells were treated with the synthesized compounds for overnight. The luciferase activity was measured with a chemiluminescent assay kit. Specifically, the plate was equilibrated at room temperature. […] and 50 μL of the medium was left inside. To each well was added 50 μL Luciferase reagents. The plates were gently rocked for more than about 15 minutes at room temperature. The luminescence signal was then read and recorded. Table 2 below summarizes the measured IC50 values for the disclosed compounds.

T1 sequence (P28347 whole entry): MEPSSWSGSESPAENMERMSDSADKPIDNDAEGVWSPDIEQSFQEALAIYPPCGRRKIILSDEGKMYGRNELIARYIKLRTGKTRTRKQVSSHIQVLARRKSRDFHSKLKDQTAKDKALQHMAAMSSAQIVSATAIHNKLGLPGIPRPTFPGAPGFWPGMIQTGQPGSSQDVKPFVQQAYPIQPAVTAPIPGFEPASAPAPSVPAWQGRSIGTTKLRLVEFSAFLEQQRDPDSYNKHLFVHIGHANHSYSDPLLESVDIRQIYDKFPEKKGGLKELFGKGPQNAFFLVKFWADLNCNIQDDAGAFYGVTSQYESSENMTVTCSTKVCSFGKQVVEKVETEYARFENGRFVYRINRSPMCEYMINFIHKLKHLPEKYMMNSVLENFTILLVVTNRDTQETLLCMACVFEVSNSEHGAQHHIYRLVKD

Row | SMILES | IC50 [nM]
1 | C#Cc1cccc(Oc2ccccc2NC(=O)CCl)c1 [Compound 1] | ≥ 5000
2 | C#Cc1cccc(Oc2cccc(NC(=O)C=C)c2)c1 [Compound 2] | 100 to 5000
3 | C#Cc1cccc(Oc2ccc(NC(=O)C=C)cc2)c1 [Compound 3] | ≥ 5000
4 | C=CC(=O)Nc1cccc(Oc2cccc(C(F)(F)F)c2)c1 [Compound 4] | ≤ 100
5 | C#CCCCO/N=C1\CCCc2cc(NC(=O)C=C)ccc21 [Compound 5] | ≥ 5000
6 | C=CC(=O)Nc1ccc2c(c1)CCC/C2=N\OCCCCC [Compound 6] | ≥ 5000
7 | C#CCCCO/N=C1/CCc2cc(NC(=O)C=C)ccc21 [Compound 7] | ≥ 5000
8 | C=CC(=O)Nc1ccc2c(c1)CC/C2=N/OCCCCC [Compound 8] | ≥ 5000
9 | C=CC(=O)Nc1cccc(Oc2cccc(OC)c2)c1 [Compound 9, N-(3-(3-methoxyphenoxy)phenyl)acrylamide] | ≤ 100
10 | C=CC(=O)Nc1cccc(Oc2csc(C(F)(F)F)c2)c1 [Compound 10, N-(3-((5-(trifluoromethyl)thiophen-3-yl)oxy)phenyl)acrylamide] | ≤ 100
11 | C=CC(=O)Nc1ccc(Oc2cccc(C(F)(F)F)c2)s1 [Compound 11, N-(5-(3-(trifluoromethyl)phenoxy)thiophen-2-yl)acrylamide] | ≤ 100
12 | C=CC(=O)Nc1cc(F)cc(Oc2ccc(C(F)(F)F)cc2)c1 [Compound 12, N-(3-fluoro-5-(4-(trifluoromethyl)phenoxy)phenyl)acrylamide] | ≤ 100
13 | C=CC(=O)Nc1cccc(Oc2cc(C(F)(F)F)ccn2)c1 [Compound 13, N-(3-((4-(trifluoromethyl)pyridin-2-yl)oxy)phenyl)acrylamide] | ≤ 100
14 | C=CC(=O)Nc1cccc(Oc2ccc(C(F)(F)F)cn2)c1 [Compound 14, N-(3-((5-(trifluoromethyl)pyridin-2-yl)oxy)phenyl)acrylamide] | ≤ 100
15 | CCCCCO/N=C1\CCc2cc(NC(=O)/C=C/CN(C)C)ccc21 [Compound 15, (E)-4-(dimethylamino)-N—((E)-1-((pentyloxy)imino)-2,3-dihydro-1H-inden-5-yl)but-2-enamide] | ≤ 100
16 | C=CC(=O)Nc1ccc2c(c1)OCC/C2=N\OCCCCC [Compound 16, (E)-N-(4-((pentyloxy)imino)chroman-7-yl)acrylamide] | ≤ 100
17 | C=CC(=O)Nc1ccc2cc(OCCCC)ccc2c1 [Compound 17, N-(6-butoxynaphthalen-2-yl)prop-2-enamide] | ≤ 100
18 | C=CC(=O)Nc1ccc2nc(OCCCC)ccc2c1 [Compound 18, N-(2-butoxyquinolin-6-yl)acrylamide] | ≤ 100
19 | C=CC(=O)Nc1ccc2c(OCCCCC)nccc2c1 [Compound 19, N-(1-(pentyloxy)isoquinolin-6-yl)acrylamide] | ≤ 100
20 | C=CC(=O)Nc1ccc2c(OCCCCC)cccc2c1 [Compound 20, N-(5-(pentyloxy)naphthalen-2-yl)acrylamide] | ≤ 100
21 | C=CC(=O)Nc1ccc2c(Oc3ccc(C(F)(F)F)cn3)cccc2c1 [Compound 21, N-(5-((5-(trifluoromethyl)pyridin-2-yl)oxy)naphthalen-2-yl)acrylamide] | ≤ 100
22 | C=CC(=O)Nc1ccc(-c2cc(C(F)(F)F)on2)c(C)c1 [Compound 22, N-(3-methyl-4-(5-(trifluoromethyl)isoxazol-3-yl)phenyl)acrylamide] | ≤ 100
23 | C=CC(=O)Nc1ccc(-c2cc(C(F)(F)F)on2)c(Cl)c1 [Compound 23, N-(3-chloro-4-(5-(trifluoromethyl)isoxazol-3-yl)phenyl)acrylamide] | ≤ 100
24 | C=CC(=O)Nc1ccc(-c2ccn(CCCCC)n2)cc1 [Compound 24, N-(4-(1-pentyl-1H-pyrazol-3-yl)phenyl)acrylamide] | ≤ 100

Now from value to compound:

Row | IC50 [nM] | SMILES
25 | ≤ 100 | C=CC(=O)N[C@@H]1CC[C@H](Oc2cccc(C(F)(F)F)c2)C1 (single isomer, unassigned) [Compound 41, N-((1R*,3S*)-3-(3-(trifluoromethyl)phenoxy)cyclopentyl)acrylamide]
26 | 100 to 5000 | C=CC(=O)N[C@H]1CC[C@@H](Oc2cccc(C(F)(F)F)c2)C1 (single isomer, unassigned) [Compound 42, N-((1S*,3R*)-3-(3-(trifluoromethyl)phenoxy)cyclopentyl)acrylamide]
27 | 100 to 5000 | C=CC(=O)Nc1ccc2c(c1)CCc1cn(CCCCC)nc1-2 [Compound 25]
28 | ≤ 100 | C=CC(=O)Nc1ccc(-c2cc(CCCC)on2)cc1 [Compound 26, N-(4-(5-butylisoxazol-3-yl)phenyl)acrylamide]
29 | 100 to 5000 | C=CC(=O)Nc1ccc2c(c1)CCc1c-2noc1CCCC [Compound 27, N-(3-butyl-4,5-dihydronaphtho[1,2-c]isoxazol-7-yl)acrylamide]
30 | ≤ 100 | C=CC(=O)Nc1ccc(-c2cc(C(F)(F)F)on2)cc1 [Compound 28, N-(4-(5-(trifluoromethyl)isoxazol-3-yl)phenyl)acrylamide]
31 | 100 to 5000 | C=C(F)C(=O)Nc1ccc2c(c1)CCC/C2=N\OCCCCC [Compound 29, (E)-2-fluoro-N-(5-((pentyloxy)imino)-5,6,7,8-tetrahydronaphthalen-2-yl)acrylamide]
32 | 100 to 5000 | C=CC(=O)Nc1ccc(-c2cc(C3CC3)on2)cc1 [Compound 30, N-(4-(5-cyclopropylisoxazol-3-yl)phenyl)acrylamide]
33 | ≤ 100 | C=CC(=O)Nc1ccc(-c2nocc2C(F)(F)F)cc1 [Compound 31, N-(4-(4-(trifluoromethyl)isoxazol-3-yl)phenyl)acrylamide]
34 | ≤ 100 | C=CC(=O)Nc1ccc(-c2cc(C(F)(F)F)no2)c(Cl)c1 [Compound 32, N-(3-chloro-4-(3-(trifluoromethyl)isoxazol-5-yl)phenyl)acrylamide]
35 | ≤ 100 | C=CC(=O)Nc1ccc(-c2noc(C(F)(F)F)n2)c(Cl)c1 [Compound 33, N-(3-chloro-4-(5-(trifluoromethyl)-1,2,4-oxadiazol-3-yl)phenyl)acrylamide]
36 | ≤ 100 | C=CC(=O)Nc1ccc(-n2cc(C(F)(F)F)nn2)c(Cl)c1 [Compound 34, N-(3-chloro-4-(4-(trifluoromethyl)-1H-1,2,3-triazol-1-yl)phenyl)acrylamide]
37 | ≤ 100 | C=CC(=O)Nc1ccc(-n2ncc(C(F)(F)F)n2)c(Cl)c1 [Compound 35, N-(3-chloro-4-(4-(trifluoromethyl)-2H-1,2,3-triazol-2-yl)phenyl)acrylamide]
38 | ≤ 100 | C=CC(=O)Nc1cc(F)cc(Oc2cccc(C(F)(F)F)c2)c1 [Compound 36, N-(3-fluoro-5-(3-(trifluoromethyl)phenoxy)phenyl)acrylamide]
39 | ≤ 100 | C=CC(=O)Nc1cc(Oc2cccc(C(F)(F)F)c2)ccc1F [Compound 37, N-(2-fluoro-5-(3-(trifluoromethyl)phenoxy)phenyl)acrylamide]
40 | ≤ 100 | C=CC(=O)Nc1cccc(Oc2ccc(C(F)(F)F)cc2)c1 [Compound 38, N-(3-(4-(trifluoromethyl)phenoxy)phenyl)acrylamide]
41 | 100 to 5000 | C=CC(=O)NC1COCC(Oc2cccc(C(F)(F)F)c2)C1 (stereo not drawn) [Compound 39, N-(5-(3-(trifluoromethyl)phenoxy)tetrahydro-2H-pyran-3-yl)acrylamide]
42 | ≤ 100 | C=CC(=O)Nc1cccc(OC2CCC(F)(F)CC2)c1 [Compound 40, N-(3-((4,4-difluorocyclohexyl)oxy)phenyl)acrylamide]
